Legend:
PC-3 cells = test: Methylene blue assay (cell proliferation), PC-3; format: cell-based, human; conditions: PC-3, 5 days
Protocol: (§1) The cells were fixed and stained with methylene blue and measured via spectrophotometry. […] EC50s were compared between the drugs: * denotes p<0.05 drug EC50 versus RN7-58, while ¶ denotes p<0.05, APX3330 versus APX2009.
(§2) Methylene Blue Assay (Cell Proliferation)
(§3) Prostate cells were seeded 1,000-5000 per well (cell line/experiment-dependent) and treated with one of APX3330, APX2009 or RN7-58 for 5 days. Media was then removed and cells were fixed with methanol for 10 minutes and stained with 100 μL of 0.05% of methylene blue (LC16920-1 diluted in 1×PBS) for 1 hour. The cells were then washed 3× with water and allowed to air dry overnight. 100 μL of 0.5 N HCl was added to each well to dissolve the methylene blue stain and absorbance (@630) was measured via spectrophotometry. The percent viabilities, normalized to DMSO, were graphed and IC50 concentrations determined.
(§4) To determine if inhibition of APE1/Ref-1's redox function affects cell proliferation, prostatic cell lines were treated with increasing concentrations of redox-specific inhibitors, APX3330 and APX2009, for 5 days and cell number was measured via methylene blue assay (FIG. 2A). […] Growth IC25's and IC50's were determined and arranged in Table 1. Student's t-test was performed to verify statistical IC25 and IC50 differences between APX3330 and APX2009.

LNCaP cells = test: Methylene blue assay (cell proliferation), LNCaP; format: cell-based, human; conditions: 5 days
Protocol: as §1, §2, §3, §4

E7 cells = test: Methylene blue assay (cell proliferation), E7 non-cancerous prostate epithelial cells; format: cell-based; conditions: E7, 5 days
Protocol: as §1, §2, §3, §4

prostatic cell lines = test: Methylene blue assay (cell proliferation), statements across prostatic cell lines; format: cell-based, human; conditions: increasing concentrations, 5 days
Protocol: as §1, §2, §3, §4

C4-2 xenograft tumors = test: In vivo subcutaneous C4-2 xenograft tumor; design: species or system male athymic nude mice
Protocol: C4-2 xenograft tumors were treated with vehicle (Propylene Glycol Kolliphor HS15 Tween 80 (PKT)) or APX2009 (25 mg/kg, IP bid) for 5 days (n=3). Tumors were removed and processed for either immunofluorescence or immunoblotting. FIG. 8A: APE1/Ref-1 and survivin protein levels were measured using immunoblotting as labeled (Left). Data was presented graphically (Right), *-denoting p<0.05 by unpaired Student's t-Test. FIG. 8B: Hematoxylin and Eosin staining and immunofluorescence were performed using APE1/Ref-1 (red) and survivin (green) specific antibodies on vehicle and APX2009 groups. Representative images were taken. White arrows are depicting survivin nuclear staining patterns. […] ImageJ Nucleus Counter was used to quantify number of BrdU+ nuclei and total nuclei per image. n=3, *-denoting p<0.05 by unpaired Student's t-test.
Human prostate specimens or C4-2 xenograft tumors were fixed in 10% formalin, processed routinely, embedded in paraffin, and serially sectioned at 5 μm via microtome. […] The sections were analyzed by immunofluorescence. […]
2×10^6 C4-2 cells were subcutaneously implanted in the hind flank of male athymic nude mice using a 100 μl volume of 50:50 solution of Matrigel: RPMI medium. […] BrdU was injected into the animals 2 hours prior to sacrifice and tumor tissues were analyzed for survivin levels (immunofluorescence and immunoblotting) and BrdU incorporation (immunofluorescence).

C4-2 cells = test: Methylene blue assay (cell proliferation), C4-2; format: cell-based, human; conditions: C4-2, 5 days
Protocol: as §1, §2, §3, §4

APE1/Ref-1 = test: Immunoblotting for total APE1/Ref-1 protein levels in prostate cancer cells; format: cell-based, human; conditions: growth inhibitory drug concentrations, 48 hours, vs DMSO
Protocol: (§5) PC-3 (FIG. 3A), C4-2 (FIG. 3B), LNCaP (FIG. 3C) and E7 (FIG. 3D) cell lines were treated with DMSO, or the growth inhibitory IC25 and IC50 drug concentrations of APX3330 or APX2009 for 48 hours Immunoblotting for survivin, APE1/Ref-1 and Actin as labeled. Representative of three determinations with densitometry quantification, N=3, *-denoting p<0.05 (DMSO vs. IC25 and IC50 Drug Concentrations) within ANOVA.
Prostate cells were homogenized in lysis buffer containing protease inhibitor (150 mM NaCl, 10 mM tris, 1 mM EDTA, 1 mM benzenesulfonyl fluoride, and 10 μg/ml each of aprotinin, bestatin, L-luecine, and pepstatin A) and 1% Triton X-100. Total protein concentration was determined by BCA (bicinchoninic acid) assay (Pierce, Rockford, Ill.). 10 μg/well of Protein were resolved by electrophoresis in 4-15% gradient polyacrylamide gels (Bio-Rad Laboratories). […] Peroxidase activity was detected via Pico chemiluminescence reagent (Pierce). Photo images were analyzed by densitometry.

survivin = test: Immunoblotting for survivin protein levels in prostate cancer cells; format: cell-based, human
Protocol: as §5
FIG. 6A: C4-2 cell line was treated with DMSO or APX2009 (14 μM) for 12 hours. RNA was isolated and RT-PCR for survivin was performed with HPRT1 as the reference gene. n=6, *-denoting p<0.05 by unpaired Student's t-test. FIG. 6B: Immunoblot validation of APE1/Ref-1 and p65 Co-Immunoprecipitation (Co-IP) reactions. A 5% sample of the total input of each reaction (Input) and the total IP reaction (IP) were loaded for each reaction. Beads lacking a conjugated antibody (Mock) and generic IgG (IgG) were used as negative controls for each IP experimental reaction, APE1 antibody (top blots) and p65 (bottom blots). FIG. 6C: C4-2 cell line was treated with DMSO, APX2009 (8 and 14 μM) or PDTC (50 and 100 μM) for 72 hours and cells were fixed and methylene blue was performed. n=3, *-denoting p<0.05 (DMSO vs 8 and 14 μM APX2009) and #-denoting p<0.05 (DMSO vs. 50 and 100 μM PDTC) as assessed by ANOVA. […] Data are expressed as Relative Luciferase Units (RLU) normalized to DMSO showing the mean±SEM. n=3, *-denoting p<0.05 (DMSO vs. 14 μM APX2009) and #-denoting p<0.05 (DMSO vs. 100 μM PDTC) within unpaired Students t-test. […] Data presented are representative of three determinations with densitometry quantification, […], *-denoting p<0.05 (DMSO vs. 14 μM APX2009) and #-denoting p<0.05 (DMSO vs. 100 μM) as assessed by unpaired Student's t-test.
Prostate cells were homogenized in lysis buffer containing protease inhibitor (150 mM NaCl, 10 mM tris, 1 mM EDTA, 1 mM benzenesulfonyl fluoride, and 10 μg/ml each of aprotinin, bestatin, L-luecine, and pepstatin A) and 1% Triton X-100. Total protein concentration was determined by BCA (bicinchoninic acid) assay (Pierce, Rockford, Ill.). […]

NFκB = test: NFκB-driven luciferase assay in C4-2 cells; format: cell-based, human; conditions: C4-2, growth inhibitory IC50 concentrations (14 μM APX2009, 100 μM PDTC), 24 hours
Protocol: FIG. 6A: C4-2 cell line was treated with DMSO or APX2009 (14 μM) for 12 hours. RNA was isolated and RT-PCR for survivin was performed with HPRT1 as the reference gene. n=6, *-denoting p<0.05 by unpaired Student's t-test. FIG. 6B: Immunoblot validation of APE1/Ref-1 and p65 Co-Immunoprecipitation (Co-IP) reactions. A 5% sample of the total input of each reaction (Input) and the total IP reaction (IP) were loaded for each reaction. Beads lacking a conjugated antibody (Mock) and generic IgG (IgG) were used as negative controls for each IP experimental reaction, APE1 antibody (top blots) and p65 (bottom blots). FIG. 6C: C4-2 cell line was treated with DMSO, APX2009 (8 and 14 μM) or PDTC (50 and 100 μM) for 72 hours and cells were fixed and methylene blue was performed. n=3, *-denoting p<0.05 (DMSO vs 8 and 14 μM APX2009) and #-denoting p<0.05 (DMSO vs. 50 and 100 μM PDTC) as assessed by ANOVA. […] Data are expressed as Relative Luciferase Units (RLU) normalized to DMSO showing the mean±SEM. n=3, *-denoting p<0.05 (DMSO vs. 14 μM APX2009) and #-denoting p<0.05 (DMSO vs. 100 μM PDTC) within unpaired Students t-test. […] Data presented are representative of three determinations with densitometry quantification, […], *-denoting p<0.05 (DMSO vs. 14 μM APX2009) and #-denoting p<0.05 (DMSO vs. 100 μM) as assessed by unpaired Student's t-test. […]

[1] = 25% reduction in absorbance vs DMSO, in µM
[2] = 50% reduction in absorbance vs DMSO, read-out: Growth IC50

| Compound | Growth IC25 (PC-3 cells; [1]) | IC50 (PC-3 cells; [2]) [µM] | Growth IC25 (LNCaP cells; [1]) | IC50 (LNCaP cells; [2]) [µM] | Growth IC25 (E7 cells; [1]) | IC50 (E7 cells; [2]) [µM] | Effect on cell proliferation (prostatic cell lines) | Total survivin protein in tumors via immunoblotting (C4-2 xenograft tumors; 25 mg/kg BID IP, 5 days, vs vehicle) | cell proliferation via BrdU staining (C4-2 xenograft tumors; prostatic tumor xenografts) | Growth IC25 (C4-2 cells; [1]) | IC50 (C4-2 cells; [2]) [µM] | total APE1/Ref-1 protein levels (APE1/Ref-1) | survivin protein abundance (survivin; growth inhibitory IC50 drug concentrations, within 48 hours, vs DMSO) | survival proteins Bcl-2, Mcl-1 and survivin (survivin; prostate cell lines, immunoblotting) | decrease in NFκB-driven luciferase activity (NFκB) | reduction in survivin protein levels (survivin; C4-2, 14 μM APX2009 / 100 μM PDTC, 48 hours) [%] |
| --- | --- | --- | --- | --- | --- | --- | --- | --- | --- | --- | --- | --- | --- | --- | --- | --- |
| 3-[(5-(2,3-dimethoxy-6-methyl1,4-benzoquinoyl)]-2-nonyl-2-proprionic acid [APX3330] | 36.0 +/− 1.0 | 54.7 | 43.8 +/− 4.2 | 71.9 | 82.7 +/− 8.7 | > 100 | inhibited cell proliferation in a concentration-dependent manner | decreased | decreased | 57.4 +/− 3.8 | 89.5 | not significantly altered | significant decrease | decrease |  |  |
| N.S=C(S)N1CCCC1 [PDTC, Ammonium pyrrolidinedithiocarbamate, reference compound] |  |  |  |  |  |  |  |  |  |  |  |  |  |  | two-fold | 67 |

From US20190365689A1, “USE OF APE/REF-1 REDOX SPECIFIC INHIBITORS FOR TREATING METASTATIC PROSTATE CANCER” (Indiana University Research and Technology Corporation, priority 2017, published 2019)
